This is an account of results in ChEMBL document CHEMBL3507680, “University of Dundee, Gates Library screen for HepG2 cell viability”.

This series can be described thus: Human HepG2 cell viability assay in 384 well format. The class given is toxicity, cell-based. Set-up: dose 125 nL, time 70.5 hour; concentration not given beside the values. To be noted: HepG2 cells, read-out: Inhibition.
With `COc1cccc(OC)c1-c1ccnc2cc(CC(=O)NC(C)C)nn12`, the cytotoxicity at 70.5 h is -7.86%.

Regarding `CC(C)[C@H](NS(C)(=O)=O)C(=O)NCc1cc(-c2ccco2)nn1C`, the cytotoxicity at 70.5 h is 7.38%. For the compound `CN(CCO)c1ncc(-c2ccc(NC(=O)[C@@H]3CCCCN3)cc2)cn1`, the cytotoxicity at 70.5 h was -1.72%. For the compound `CC[C@@H](C)[C@@H](N)C(=O)Nc1cccc(-c2cnc(N(C)CCO)nc2)c1`, the cytotoxicity at 70.5 h is -6.3%. Take `CNc1nc2c(s1)C(=O)CN(C(=O)[C@@H](N)Cc1cccc(OC)c1)C2`: the cytotoxicity at 70.5 h is -5.78%.

As for `CC[C@H](C)[C@H](N)C(=O)N1CC(=O)c2sc(NCc3ccccc3)nc2C1`, the cytotoxicity at 70.5 h is 7.34%. The result for `CC[C@H](C)[C@H](N)C(=O)Nc1nc(-c2cnc(N3CCOCC3)nc2)cs1` reads -1.59%; that for `CC(C)[C@H](NS(C)(=O)=O)C(=O)NCc1cc(-c2cccc(Cl)c2)nn1C`, 6.72%; that for `Cc1[nH]c2ccccc2c1-c1ccnc(NC[C@H](O)CO)n1`, 26.8%. Under `CC[C@H](C)Nc1nccc(-c2cnc3sc(C)c(C)n3c2=O)n1` stands 23.3%; under `Cc1csc2ncc(-c3ccnc(N4CCN(C)CC4)n3)c(=O)n12`, 24.1%; under `CN1CCCN(c2nccc(-c3c[nH]nc3C3CCCCC3)n2)CC1`, -3.95%. The result for `Cc1ncc(-c2ccnc(N3CCCCCC3)n2)c(-c2cccnc2)n1` reads -10.6%. Regarding `CC(C)[C@H]1COC(=O)N1Cc1nncn1C(C)C`, the cytotoxicity at 70.5 h is -7.29%. Turning to `CCCOC(=O)N1CCn2nc(-c3nc4ccccc4n3C)cc2C1`, the cytotoxicity at 70.5 h was -5.25%. For `CCNc1ncc(CN2C[C@@H](CN3CCC(CO)CC3)[C@@H](CO)C2)cn1`, the cytotoxicity at 70.5 h is -2.73%. In the case of `CN1CC2(CCN(C(=O)COc3ccc(Cl)cc3Cl)CC2)OC1=O`, the cytotoxicity at 70.5 h stood at 14.5%. In the case of `c1ccc(-c2nc(CCNc3nnc(C4CCC4)o3)no2)cc1`, the cytotoxicity at 70.5 h amounted to 15.9%. Turning to `COCC(=O)Nc1ccccc1Sc1c(C)n[nH]c1C`, the cytotoxicity at 70.5 h was 25.1%. Under `CN(C)CCCN1CC2(CCN(C3CCCOC3)CC2)OC1=O` (centres undefined) stands -6.54%; under `CC(C)(C)NC(=O)CN1CCCC(c2ccc(C(=O)O)cc2)C1` (centres undefined), 0.492%; under `CCCn1cc(-c2ccnc(NC3CCc4ccccc4C3)n2)c(C)n1` (centres undefined), 19.3%. Regarding `CN(Cc1ccccn1)c1nccc(N2CCN[C@H]3CS(=O)(=O)C[C@H]32)n1`, the cytotoxicity at 70.5 h worked out at 8.37%. Regarding `COc1cncc(-n2ccnc2-c2ccc(C(=O)O)s2)c1`, the cytotoxicity at 70.5 h was -10%.

`C[C@@H]1CN(C(=O)c2nc3sccn3c2-c2ncc[nH]2)C[C@H](C)O1`: the cytotoxicity at 70.5 h was -7.22%. `Cc1cc(=O)[nH]c(NCCNC(=O)c2ccccc2N2CCCC2)n1`: the cytotoxicity at 70.5 h amounted to 32.3%. With `O=S1(=O)C[C@@H]2[C@H](C1)N(Cc1ncc[nH]1)CCN2C/C=C/c1ccccc1`, the cytotoxicity at 70.5 h was -7.45%. Take `COc1ccc(OC)c(-n2cnnc2C)c1`: the cytotoxicity at 70.5 h is -3.42%. Under `COc1cc(C(=O)N(C)C(C)Cc2cc(C)ccn2)ccn1` (centres undefined) stands 25.8%; under `CCn1c(CC2CCN(S(=O)(=O)Cc3ccccc3)CC2)nn(C)c1=O`, -9.61%; under `Cc1nsc(NC(=O)NC2(CN3CCCCC3)CCCCC2)n1`, -9.47%. Consider `CC(C)OCCNC(=O)C1CCC(=O)N(C2CCCC2)C1` (centres undefined), for which the cytotoxicity at 70.5 h was -4.22%. As for `CCC(CO)N(Cc1cccs1)C(=O)Cc1ccncc1` (centres undefined), the cytotoxicity at 70.5 h was -8.11%. For the compound `COc1ccc(CCN2C(=O)O[C@@H]3CN(C)C[C@@H]32)cc1`, the cytotoxicity at 70.5 h was -10.7%.

As for `CCN(CCO)Cc1cn(-c2cccc(F)c2)nc1-c1ccc(C)o1`, the cytotoxicity at 70.5 h was -14.6%.

Regarding `O=S1(=O)CCC(n2nc(Cc3cccs3)nc2-c2cnccn2)C1` (centres undefined), the cytotoxicity at 70.5 h is 0.418%. For `COc1cccc2ccc(N3CCC(O)(c4ccc(C)cn4)CC3)nc12`, the cytotoxicity at 70.5 h is -21.5%. As to `Cc1cc(CN2CCN(C(=O)C3CCC3)[C@@H]3CS(=O)(=O)C[C@@H]32)ccc1F`, the cytotoxicity at 70.5 h was found to be 1.76%. As to `COc1ccccc1C(=O)N1CCN(C(=O)CCn2ccnc2)CC1`, the cytotoxicity at 70.5 h is -5.01%.

Regarding `CC(NC(=O)c1cc2n(n1)CCCN(C)C2)c1cn2ncsc2n1` (centres undefined), the cytotoxicity at 70.5 h was -7.44%. As for `CSCC[C@@H](CO)Nc1ccc(-c2nc(C3CC3)no2)cn1`, the cytotoxicity at 70.5 h was -3.18%. As to `CCn1ccnc1CN1CCCC(CO)(CCCc2ccccc2)C1` (centres undefined), the cytotoxicity at 70.5 h was -0.875%. In the case of `NC(=O)CCn1cc(CNCCCc2ccncc2)c2ccccc21`, the cytotoxicity at 70.5 h is -3.77%.

For the compound `Cc1nc(-c2cccnc2)ncc1C(=O)N1CCC(c2ncc[nH]2)CC1`, the cytotoxicity at 70.5 h was -3.5%. For `COC(=O)c1cc(OCC2CCC2)cc(C(=O)N[C@H]2CCCC[C@@H]2O)c1`, the cytotoxicity at 70.5 h was -8.47%. Consider `COC1CCCOC12CCN(C(=O)NCc1ccco1)CC2` (centres undefined), for which the cytotoxicity at 70.5 h is -1.17%.

Turning to `COc1ccc(CNC(=O)Cc2csc(C(C)=O)c2)cc1`, the cytotoxicity at 70.5 h is -8.65%. The result for `CC(C)n1cnnc1Cn1ccc2ncccc2c1=O` reads 1%; that for `CCCN1CCN(C(=O)c2ccc(Cl)cn2)[C@H]2CS(=O)(=O)C[C@H]21`, -10.4%; that for `CN(Cc1ccc(-n2cccn2)cc1)C[C@@H]1CCCN2CCCC[C@H]12`, 24.9%. For `CN1CCC(C(=O)NCCC2CN(c3cnn(C)c(=O)c3)CCO2)CC1` (centres undefined), the cytotoxicity at 70.5 h was -7.81%.

Consider `c1cc2c(cc1-c1noc3c1CN(C1CCC1)CC3)OCO2`, for which the cytotoxicity at 70.5 h came out at 1.77%. Turning to `CC(C)N1CCCC(C(=O)NCc2noc(Cc3ccccc3)n2)C1` (centres undefined), the cytotoxicity at 70.5 h is 8.23%.

As for `Cc1cc(C(=O)N2CCc3c(nc(-c4ccncc4)[nH]c3=O)C2)no1`, the cytotoxicity at 70.5 h stood at 2.99%. For the compound `Cc1ccc(NC(=O)N2CCCC(O)(CO)CC2)cc1Cl` (centres undefined), the cytotoxicity at 70.5 h was -4.85%. On to `CC(C)CCN1CCNC(=O)C1CC(=O)NCCc1cc(O)ncn1` (centres undefined), for which the cytotoxicity at 70.5 h was -11%. Turning to `CCC1CN(Cc2nnc(C(C)C)o2)CCC(=O)N1Cc1ccccc1` (centres undefined), the cytotoxicity at 70.5 h is -10.7%. Turning to `CN(Cc1cnccn1)CC1CCOc2ccccc2C1` (centres undefined), the cytotoxicity at 70.5 h was -12.2%. `CCc1cnc(N)nc1NCCC(=O)NC1CCCCC1`: the cytotoxicity at 70.5 h was -25.4%.

For `O=C(O)[C@@H]1CN(Cc2ccc3nsnc3c2)C[C@H]1c1cccnc1`, the cytotoxicity at 70.5 h was 1.8%. For the compound `O=C(C1CC1)N1C[C@H]2CNC[C@@]2(C(=O)NCCCc2ccccc2)C1`, the cytotoxicity at 70.5 h was -1.55%.

For the compound `N#Cc1cccc(CN2C(=O)C3(CCNCC3)Nc3ccccc32)c1`, the cytotoxicity at 70.5 h was determined as 13.4%.

As to `Cc1ncnc(N2CCCN(c3nc4ccccc4s3)CC2)c1C`, the cytotoxicity at 70.5 h turned out to be 7.7%. For the compound `Cc1ncsc1CN1CCN(C)C2(CCC(=O)N(CCO)CC2)C1` (centres undefined), the cytotoxicity at 70.5 h came to 3.92%. In the case of `COc1cc(-c2cc(C3CCOC3)c(C#N)c(N)n2)ccc1O` (centres undefined), the cytotoxicity at 70.5 h is -6.12%. The result for `COc1ccccc1[C@@H]1CN(Cc2csc(C(C)=O)c2)C[C@H]1C(=O)O` reads -3.94%.

As to `COc1cccc(Cn2c(C)c(C)oc2=O)c1OC`, the cytotoxicity at 70.5 h was found to be 1.78%. Consider `NC(=O)COc1ccc(CN2CCC(O)(CN3CCCCC3)C2)cc1Cl` (centres undefined), for which the cytotoxicity at 70.5 h was -12.1%.

With `Cc1ncsc1CCN(C)C(=O)c1ccc(CN2CCCCC2)cc1`, the cytotoxicity at 70.5 h came to 0.585%. Regarding `CNC(=O)c1ccnc(N2CCCC(COc3cccc(C)c3)C2)c1` (centres undefined), the cytotoxicity at 70.5 h was -20.4%.

For the compound `Cc1n[nH]c(C)c1C(N)C(=O)NCCc1csc(C(C)C)n1` (centres undefined), the cytotoxicity at 70.5 h is -11.3%. On to `COc1ccc(C2(C(=O)N3C[C@@H](C(=O)O)[C@H](C(C)C)C3)CC2)cc1`, for which the cytotoxicity at 70.5 h was -6.04%. The result for `O=C(CCCn1cncn1)N1CCC2(CCCN(CC3CC3)C2=O)C1` (centres undefined) reads 18.3%; that for `COc1ccc(NC(=O)N2CCC3(CC2)NC(=O)CC3C(=O)O)cc1Cl` (centres undefined), 13.1%. As to `CC(C)(C)c1ncc(C(=O)N2CCC(N3CCSCC3)CC2)c(O)n1`, the cytotoxicity at 70.5 h is -7.4%. The result for `Cn1cc(CN(C(=O)C2COc3ccccc3C2)C2CC2)cn1` (centres undefined) reads -9.16%; that for `CCn1cc(-c2cc(-c3cc(CN(C)C)cs3)nc(N)c2C#N)c(C)n1`, -6.34%; that for `CN1CCCC(CNS(=O)(=O)N2CCc3ccccc3C2)C1` (centres undefined), -10.7%.

`CN(C)S(=O)(=O)N1CC[C@]2(O)CCN(c3cc(C#N)ccn3)C[C@@H]2C1`: the cytotoxicity at 70.5 h is -7.65%.

`O=C(NCCc1cscn1)c1coc(CN2CCOCC2)c1`: the cytotoxicity at 70.5 h is -8.02%. Regarding `COCc1ncc(CN2C[C@@H](C(=O)O)[C@H](C(C)C)C2)cn1`, the cytotoxicity at 70.5 h amounted to 9.21%.

Turning to `CCOc1ccc(-n2nc(C)c(CC(C)=O)c2C)cc1C(N)=O`, the cytotoxicity at 70.5 h is -2.04%. Take `CC(C)c1cc(NCC2(Cn3cccn3)CC2)nc(N)n1`: the cytotoxicity at 70.5 h is -0.462%. In the case of `CCn1ccnc1-c1nccn1-c1ccccc1CN1CCOCC1`, the cytotoxicity at 70.5 h was -8.91%. In the case of `CC(C)Cn1cncc1CNC(=O)c1cccc(-n2cnnc2)c1`, the cytotoxicity at 70.5 h was 8.85%. For `Cc1cc(CN2C[C@H]3CC[C@@H]2CN(C2Cc4ccccc4C2)C3)on1`, the cytotoxicity at 70.5 h was found to be 3.93%. The result for `CCc1ccc(C(=O)N2CCC3(CCC(=O)N(CCN(C)C)C3)CC2)[nH]1` reads -1.77%; that for `O=C(NCC(O)c1cccc(O)c1)C1CCN(C2CCCCC2)CC1` (centres undefined), -11.8%; that for `Cc1cc2[nH]c(=O)oc2cc1S(=O)(=O)N1C[C@@H](N(C)C)[C@H](C(C)C)C1`, -10.7%. As to `CCN(CC)C(=O)[C@@H]1C[C@H](N)CN1c1noc(-c2ccccc2)n1`, the cytotoxicity at 70.5 h was -3.04%. The result for `CC(C)N(CCO)C(=O)C1CCC(=O)N(CCc2ccc(Cl)cc2)C1` (centres undefined) reads -1.21%; that for `COc1ccc(CN(CC2CCCO2)c2nc3c(s2)c(C)nn3C)cc1` (centres undefined), 41.8%; that for `CC(C)Cc1cc(C(=O)NC(C)(C)c2nnc(N)s2)n(C)n1`, -6.76%. The result for `CNc1ncc(-c2csc(NC(=O)C[C@H]3COCCN3)n2)cn1` reads -11.4%.
